Data on 20 molecules can be found in ChEMBL document CHEMBL4825766, “Structure Activity Relationships for a Series of Eticlopride-Based Dopamine D2/D3 Receptor Bitopic Ligands” (J Med Chem, 2021).

Each structure is given as a SMILES string.

One test addresses D(2) dopamine receptor (Homo sapiens, UniProt P14416).
The target in a further test is D(3) dopamine receptor (Homo sapiens, UniProt P35462).
Chain of D(3) dopamine receptor (P35462 whole entry): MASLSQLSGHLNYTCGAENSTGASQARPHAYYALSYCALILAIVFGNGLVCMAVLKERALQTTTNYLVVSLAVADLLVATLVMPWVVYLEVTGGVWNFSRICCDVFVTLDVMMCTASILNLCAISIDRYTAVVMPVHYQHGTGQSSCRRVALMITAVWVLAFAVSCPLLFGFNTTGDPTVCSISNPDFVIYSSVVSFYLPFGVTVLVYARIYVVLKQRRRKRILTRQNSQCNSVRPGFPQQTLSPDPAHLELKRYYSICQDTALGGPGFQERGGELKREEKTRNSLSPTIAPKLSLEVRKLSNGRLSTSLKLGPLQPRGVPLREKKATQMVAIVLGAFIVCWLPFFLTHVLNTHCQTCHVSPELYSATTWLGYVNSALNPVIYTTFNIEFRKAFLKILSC

Chain of D(2) dopamine receptor (P14416 whole entry): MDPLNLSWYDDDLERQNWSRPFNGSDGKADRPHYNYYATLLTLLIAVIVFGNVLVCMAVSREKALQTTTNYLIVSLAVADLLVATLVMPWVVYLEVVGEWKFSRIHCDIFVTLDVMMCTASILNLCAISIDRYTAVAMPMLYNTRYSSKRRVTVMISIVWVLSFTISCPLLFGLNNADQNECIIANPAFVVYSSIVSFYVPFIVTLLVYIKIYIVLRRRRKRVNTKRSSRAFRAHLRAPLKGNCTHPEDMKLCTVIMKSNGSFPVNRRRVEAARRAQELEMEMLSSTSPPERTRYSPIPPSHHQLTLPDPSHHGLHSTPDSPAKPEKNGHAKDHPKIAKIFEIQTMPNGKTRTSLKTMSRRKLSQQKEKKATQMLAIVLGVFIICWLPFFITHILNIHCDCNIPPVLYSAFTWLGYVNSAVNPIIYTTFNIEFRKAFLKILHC

As for `CCc1cc(Cl)c(OC)c(C(=O)NC[C@@H]2C[C@@H](OCCCCO)CN2)c1O`, the Ki (in general, the equilibrium dissociation constant of an inhibitor or competing ligand from its target) on D(2) dopamine receptor was 1.9 nM; at D(3) dopamine receptor, 0.815 nM.

Turning to `CCc1cc(Cl)c(OC)c(C(=O)NC[C@@H]2CCCN2CCCCOc2ccc3c(c2)NC(=O)CC3)c1O`, the Ki at D(2) dopamine receptor amounted to 25.3 nM; at D(3) dopamine receptor it was 6.97 nM. For the molecule `CCc1cc(Cl)c(OC)c(C(=O)NC[C@@H]2C[C@@H](OCCCCNC(=O)c3cc4ccccc4o3)CN2)c1O`, the Ki at D(2) dopamine receptor came to 2.29 nM; on D(3) dopamine receptor, 0.493 nM.

Turning to `CCc1cc(Cl)c(OC)c(C(=O)NC[C@@H]2CCCN2CCCCNC(=O)c2cc3ccccc3o2)c1O`, the Ki at D(2) dopamine receptor worked out at 27.6 nM; on D(3) dopamine receptor, 15.4 nM. Consider `CCc1cc(Cl)c(OC)c(C(=O)NC[C@@H]2C[C@@H](OCCCCOCc3ccccc3)CN2)c1O`, for which the Ki on D(2) dopamine receptor came to 7.24 nM; on D(3) dopamine receptor it was 1.01 nM. The matching figures for `CCc1cc(Cl)c(OC)c(C(=O)NC[C@@H]2CCCN2Cc2ccccc2)c1O`: 205 nM and 28.7 nM. On to `CCCN1CCC(CNC(=O)c2c(O)c(CC)cc(Cl)c2OC)C1` (centres undefined), for which the Ki at D(2) dopamine receptor worked out at 66.4 nM; at D(3) dopamine receptor, 14.3 nM.

Consider `CCc1cc(Cl)c(OC)c(C(=O)NC[C@@H]2C[C@@H](OCCCCNC(=O)c3cc4ccccc4[nH]3)CN2)c1O`, for which the results for the Ki at D(2) dopamine receptor and at D(3) dopamine receptor were 2.54 nM and 0.797 nM, respectively. As for `CCc1cc(Cl)c(OC)c(C(=O)NC[C@@H]2CCCN2)c1O`, the Ki was determined as 2.26 nM on D(2) dopamine receptor and 0.431 nM at D(3) dopamine receptor.

As to `CCCN1C[C@H](OCCCCOc2ccc3c(c2)NC(=O)CC3)C[C@H]1CNC(=O)c1c(O)c(CC)cc(Cl)c1OC`, the Ki is 2.57 nM on D(2) dopamine receptor and 0.444 nM on D(3) dopamine receptor. As to `CCc1cc(Cl)c(OC)c(C(=O)NC[C@@H]2CCCN2CCCc2ccccc2)c1O`, the Ki stood at 162 nM on D(2) dopamine receptor and 20.4 nM on D(3) dopamine receptor. For `CCCN1CCC[C@H]1CNC(=O)c1c(O)c(CC)cc(Cl)c1OC`, in that order: 0.688 nM and 0.281 nM. Consider `CCc1cc(Cl)c(OC)c(C(=O)NC[C@@H]2CCCN2Cc2ccccc2)c1OCc1ccccc1`, for which the Ki was found to be 2590 nM at D(2) dopamine receptor and 426 nM at D(3) dopamine receptor. On to `CCc1cc(Cl)c(OC)c(C(=O)NC[C@@H]2C[C@@H](OCCCc3ccccc3)CN2)c1O`, for which the figures for the Ki on D(2) dopamine receptor and at D(3) dopamine receptor were 7.42 nM and 2.63 nM, respectively.

Turning to `CCc1cc(Cl)c(OC)c(C(=O)NCC2CCN(CC)C2)c1O` (centres undefined), the Ki on D(2) dopamine receptor was 38.2 nM; at D(3) dopamine receptor, 19.2 nM. Consider `CCc1cc(Cl)c(OC)c(C(=O)NC[C@@H]2CCCN2CCCCNC(=O)c2cc3ccccc3[nH]2)c1O`, for which the Ki on D(2) dopamine receptor came out at 173 nM; at D(3) dopamine receptor it was 61.1 nM. Take `CCc1cc(Cl)c(OC)c(C(=O)NC[C@@H]2C[C@@H](OCCCCOc3ccc4c(c3)NC(=O)CC4)CN2)c1O`: the Ki is 1.77 nM on D(2) dopamine receptor and 0.436 nM at D(3) dopamine receptor. For the molecule `CCc1cc(Cl)c(OC)c(C(=O)NCC2CCN(C)C2)c1O` (centres undefined), the results for the Ki at D(2) dopamine receptor and at D(3) dopamine receptor were 217 nM and 100 nM, respectively. Regarding `CCc1cc(Cl)c(OC)c(C(=O)NC[C@@H]2CCCN2CCc2c(C)nc3n(c2=O)CCCC3)c1O`, the Ki on D(2) dopamine receptor stood at 74.4 nM; at D(3) dopamine receptor, 50.3 nM. For the molecule `CCc1cc(Cl)c(OC)c(C(=O)NC[C@@H]2CCCN2CC)c1O` [ETICLOPRIDE], the Ki at D(2) dopamine receptor was determined as 0.117 nM.
